“And” between values parts separate entries of the source, which are not always exact repeats. Identical values can stand only once. Inconclusive results and toxic doses are left out.

For the assay, the system named is L1210 leukemia ip in BDF1 mice, survival T/C. Briefly: NCI In Vivo Anticancer Drug Screen. Data for tumor model L1210 Leukemia (intraperitoneal) in B6D2F1 (BDF1) mice. The following applies: endpoint: mean survival time, higher = longer survival. A digest of the protocol: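 Read-out is survival time, reported as the treated-group measurement over the vehicle-control measurement.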

Where [1] appears, read: dose: 100.0 mg/kg/injection, schedule: Q01DX009 (ip), vehicle: saline with Tween-80.
[2] abbreviates: dose: 100.0 mg/kg/injection, schedule: Q04DX002 (ip), vehicle: saline with Tween-80.
The mark [3] stands for this setting: dose: 100.0 mg/kg/injection, schedule: Q04DX003 (ip), vehicle: saline with Tween-80.
The mark [4] stands for this setting: dose: 200.0 mg/kg/injection, schedule: Q01DX009 (ip), vehicle: saline with Tween-80.
Where [5] appears, read: dose: 200.0 mg/kg/injection, schedule: Q04DX002 (ip), vehicle: saline with Tween-80.
The mark [6] stands for this setting: dose: 200.0 mg/kg/injection, schedule: Q04DX003 (ip), vehicle: saline with Tween-80.
Setting [7] is: dose: 400.0 mg/kg/injection, schedule: Q01DX009 (ip), vehicle: saline with Tween-80.
[8] abbreviates: dose: 400.0 mg/kg/injection, schedule: Q04DX002 (ip), vehicle: saline with Tween-80.
[9] abbreviates: dose: 400.0 mg/kg/injection, schedule: Q04DX003 (ip), vehicle: saline with Tween-80.
Setting [10] is: dose: 100.0 mg/kg/injection, schedule: Q01DX001 (ip), vehicle: Klucel (hydroxypropylcellulose) (HPC).
The mark [11] stands for this setting: dose: 200.0 mg/kg/injection, schedule: Q01DX001 (ip), vehicle: Klucel (hydroxypropylcellulose) (HPC).
Setting [12] is: dose: 100.0 mg/kg/injection, schedule: Q01DX009 (ip), vehicle: Klucel (hydroxypropylcellulose) (HPC).
Where [13] appears, read: dose: 200.0 mg/kg/injection, schedule: Q01DX009 (ip), vehicle: Klucel (hydroxypropylcellulose) (HPC).
Setting [14] is: dose: 400.0 mg/kg/injection, schedule: Q01DX009 (ip), vehicle: Klucel (hydroxypropylcellulose) (HPC).
Where [15] appears, read: dose: 100.0 mg/kg/injection, schedule: Q04DX003 (ip), vehicle: saline.
The mark [16] stands for this setting: dose: 200.0 mg/kg/injection, schedule: Q04DX003 (ip), vehicle: saline.

As to `Cc1c(Cl)cccc1NC(=O)OCCCc1ccccc1`, the T/C by setting is: (dose: 100.0 mg/kg/injection, schedule: Q01DX001 (ip), vehicle: saline with Tween-80) 93 % of control; under setting [1], 101 % of control and 104 % of control; under setting [2], 96 % of control and 108 % of control; under setting [3], 102 % of control; (dose: 200.0 mg/kg/injection, schedule: Q01DX001 (ip), vehicle: saline with Tween-80) 93 % of control; under setting [4], 93 % of control and 96 % of control. Further, the T/C is, setting by setting: under setting [5], 108 % of control and 121 % of control; under setting [6], 89 % of control; (dose: 400.0 mg/kg/injection, schedule: Q01DX001 (ip), vehicle: saline with Tween-80) 90 % of control; under setting [7], 98 % of control and 90 % of control; under setting [8], 97 % of control and 101 % of control; under setting [9], 91 % of control.

`S=P(N1CC1)(N1CC1)N1CC1.[Cl-].[Cl-].[NH2-].[NH2-].[Pt+4]`: the T/C by setting is: (dose: 1.8 mg/kg/injection, schedule: Q01DX009 (ip), vehicle: saline) 111 % of control and 103 % of control and 101 % of control; (dose: 2.7 mg/kg/injection, schedule: Q01DX009 (ip), vehicle: saline) 111 % of control and 116 % of control; (dose: 3.13 mg/kg/injection, schedule: Q01DX009 (ip), vehicle: Klucel (hydroxypropylcellulose) (HPC)) 150 % of control and 152 % of control; (dose: 4.1 mg/kg/injection, schedule: Q01DX009 (ip), vehicle: saline) 164 % of control [middle of 5 runs]; (dose: 6.25 mg/kg/injection, schedule: Q01DX009 (ip), vehicle: Klucel (hydroxypropylcellulose) (HPC)) 211 % of control and 166 % of control and 227 % of control; (dose: 6.25 mg/kg/injection, schedule: Q01DX009 (ip), vehicle: saline) 233 % of control [middle of 4 runs]. Also, the T/C by setting is: (dose: 9.3 mg/kg/injection, schedule: Q01DX009 (ip), vehicle: saline) 200 % of control and 277 % of control; (dose: 12.5 mg/kg/injection, schedule: Q01DX009 (ip), vehicle: Klucel (hydroxypropylcellulose) (HPC)) 105 % of control and 92 % of control and 91 % of control; (dose: 12.5 mg/kg/injection, schedule: Q01DX009 (ip), vehicle: saline) 98 % of control and 103 % of control.

Take `CCCCCCCCCCCCC(CCC)(OO)C(=O)OC` (stereo unspecified): the T/C reads like this: (dose: 25.0 mg/kg/injection, schedule: Q04DX002 (ip), vehicle: saline with Tween-80) 98 % of control; (dose: 50.0 mg/kg/injection, schedule: Q04DX002 (ip), vehicle: saline with Tween-80) 87 % of control; under setting [2], 98 % of control.

As for `COc1ccc(CCC2(C=O)CNCN2)cc1` (stereo unspecified), the T/C reads like this: (dose: 100.0 mg/kg/injection, schedule: Q01DX001 (ip), vehicle: other) 98 % of control; (dose: 200.0 mg/kg/injection, schedule: Q01DX001 (ip), vehicle: other) 93 % of control.

On to `Cc1ccc(S(=O)(=O)NNS(=O)(=O)c2ccc(C)cc2)cc1`, for which the T/C reads like this: under setting [10], 109 % of control; under setting [11], 109 % of control.

Regarding `CCN(CC)c1cc2c(cc1Br)-c1ccccc1C2=O`, the T/C is 101 % of control under setting [3], 104 % of control under setting [6] and 106 % of control under setting [9].

`Clc1ccc(C2(CBr)OCCO2)cc1`: the T/C under setting [12] was 98 % of control and 105 % of control; the T/C (dose: 100.0 mg/kg/injection, schedule: Q04DX002 (ip), vehicle: Klucel (hydroxypropylcellulose) (HPC)) was 95 % of control and 100 % of control; the T/C under setting [13] is 101 % of control and 91 % of control; the T/C (dose: 200.0 mg/kg/injection, schedule: Q04DX002 (ip), vehicle: Klucel (hydroxypropylcellulose) (HPC)) was 97 % of control and 98 % of control; the T/C under setting [14] is 97 % of control and 98 % of control; the T/C (dose: 400.0 mg/kg/injection, schedule: Q04DX002 (ip), vehicle: Klucel (hydroxypropylcellulose) (HPC)) was 98 % of control and 108 % of control.

For the compound `O=C(Nc1ccccc1)C(Br)c1ccccc1` (stereo unspecified), the T/C under setting [15] was 91 % of control and the T/C under setting [16] is 90 % of control.

As to `COC(=O)c1cc(N2CC2)nc(SC)n1`, the T/C was 96 % of control (dose: 6.0 mg/kg/injection, schedule: Q01DX Z (ip), vehicle: methylcellulose (MC)) and 96 % of control (dose: 12.0 mg/kg/injection, schedule: Q01DX Z (ip), vehicle: methylcellulose (MC)).

In the case of `CN(C(=O)c1ccccc1Cl)C(c1ccco1)P(=O)(c1ccccc1)c1ccccc1` (stereo unspecified), the T/C under setting [1] is 93 % of control; the T/C under setting [2] was 93 % of control; the T/C under setting [4] is 90 % of control; the T/C under setting [5] is 90 % of control; the T/C under setting [7] is 87 % of control; the T/C under setting [8] was 90 % of control.

As to `CCOC(=O)CC1C(=O)Oc2ccc(O)cc21` (stereo unspecified) (tested in a mixture with another compound), the T/C under setting [1] is 100 % of control; the T/C under setting [3] was 96 % of control; the T/C under setting [4] is 97 % of control; the T/C under setting [6] was 110 % of control; the T/C under setting [7] was 90 % of control; the T/C under setting [9] is 94 % of control.

Consider `CCN(CC)CCN(C)CC(=O)Nc1ccccc1C`, for which the T/C (dose: 75.0 mg/kg/injection, schedule: Q01DX001 (ip), vehicle: saline) was 100 % of control; the T/C (dose: 150.0 mg/kg/injection, schedule: Q01DX001 (ip), vehicle: saline) is 103 % of control; the T/C (dose: 300.0 mg/kg/injection, schedule: Q01DX001 (ip), vehicle: saline) is 101 % of control.

Regarding `CC(C)(C)C(O)(C(=O)O)C(C)(C)C`, the T/C is, setting by setting: (dose: 50.0 mg/kg/injection, schedule: Q01DX001 (ip), vehicle: saline) 110 % of control; (dose: 100.0 mg/kg/injection, schedule: Q01DX001 (ip), vehicle: saline) 98 % of control; (dose: 200.0 mg/kg/injection, schedule: Q01DX001 (ip), vehicle: saline) 104 % of control; (dose: 400.0 mg/kg/injection, schedule: Q01DX001 (ip), vehicle: saline) 100 % of control.

With `CC(C)SC(=S)Nc1ccc(Cl)c(Cl)c1`, the T/C reads like this: (dose: 30.0 mg/kg/injection, schedule: Q04DX003 (ip), vehicle: saline) 95 % of control; (dose: 60.0 mg/kg/injection, schedule: Q04DX003 (ip), vehicle: saline) 98 % of control; (dose: 120.0 mg/kg/injection, schedule: Q04DX003 (ip), vehicle: saline) 95 % of control.

As for `O=[N+]([O-])c1cc(Cl)[n+]([O-])c(Cl)c1`, the T/C (dose: 75.0 mg/kg/injection, schedule: Q01DX001 (ip), vehicle: carboxymethylcellulose (CMC)) was 101 % of control.

Turning to `O=c1[nH]cc(CCCO)c(=O)[nH]1`, the T/C was 88 % of control (dose: 100.0 mg/kg/injection, schedule: Q01DX009 (ip), vehicle: saline); 103 % of control under setting [15]; 93 % of control (dose: 200.0 mg/kg/injection, schedule: Q01DX009 (ip), vehicle: saline); 100 % of control under setting [16]; 88 % of control (dose: 400.0 mg/kg/injection, schedule: Q01DX009 (ip), vehicle: saline); 92 % of control (dose: 400.0 mg/kg/injection, schedule: Q04DX003 (ip), vehicle: saline).

On to `CCCCNC(C)(C)C(SS)c1cccs1` (stereo unspecified), for which the T/C reads like this: (dose: 100.0 mg/kg/injection, schedule: Q04DX003 (ip), vehicle: saline sonified) 96 % of control; (dose: 200.0 mg/kg/injection, schedule: Q04DX003 (ip), vehicle: saline sonified) 92 % of control; (dose: 400.0 mg/kg/injection, schedule: Q04DX003 (ip), vehicle: saline sonified) 96 % of control.

As to `COC(=O)CCCCCCCCCC(=O)OC`, the T/C is 100 % of control under setting [10]; 97 % of control under setting [12]; 101 % of control under setting [11]; 96 % of control under setting [13]; 95 % of control (dose: 400.0 mg/kg/injection, schedule: Q01DX001 (ip), vehicle: Klucel (hydroxypropylcellulose) (HPC)); 94 % of control under setting [14].

`O=C(c1cccs1)c1cccs1`: the T/C is, setting by setting: (dose: 50.0 mg/kg/injection, schedule: Q01DX009 (ip), vehicle: saline with Tween-80) 98 % of control; under setting [1], 100 % of control; under setting [3], 102 % of control; under setting [4], 94 % of control; under setting [6], 107 % of control; under setting [7], 96 % of control. Moreover, the T/C under setting [9] is 101 % of control.

Values taken from PubChem BioAssay AID248 (DTP/NCI, 2004).
